The results in this text go back to the supplement of paper PMC11208160.
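Also: IS621 bridge recombinase in Escherichia coli cells against a fixed T5 target plasmid.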

The nature of this data set: recombinant UMI read abundance after kanamycin selection (control-corrected) (log10(CPM+1)); higher = more efficient recombination; extreme values may be limits of the assay; sequences stand for … in AGTGCAGAGAAAATCGGCCAGTTTTCTCTGCCTGCAGTCCGCATGCCGTGGGACCCCTTGGGTTCTAACCTGTTGCCTAGATTTATGCAGCGGACTGCCTTTCTCCCAAAGTGATAAACCGG…AGGTTGGTTTCACT; site = the 11-nt donor. A digest of the protocol:
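Counts of recombinant UMIs were reported as log10(CPM+1). Before that, they were converted to CPM, averaged over replicates and scaled using control-derived factors. They came from PCR across the donor–target junction after Escherichia coli carrying the pair library and target plasmid was plated on IPTG (0.07 mM) plus kanamycin, or unselected, in two replicates each.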
For the sequence “GGGCACCCATGGACCGGTTTTCCCGGTAATCCGTATTTGTT (site GGCCACCCTAA)”, the “recombinant UMI read abundance (log10)” value is 0.161.
In the case of “GGGCACCCATGGACCGGTTTTCCCGGTAATCCGTATTTGTT (site GGGCACCCTAA)” it was 0.325; in that of “GGGCACCCATGGACCGGTTTTCCCGGTAATCCGTATTTGTT (site GGTCACCCTAA)”, 0.268; in that of “GGGCCGGCATGGACCGGTTTTCCCGGTAATCCGTATTTGGC (site AGGCCGGCTGC)”, 0.
In the case of “GGGCCGGCATGGACCGGTTTTCCCGGTAATCCGTATTTGGC (site CGGCCGGCTGC)” it was 0; in that of “GGGCCGGCATGGACCGGTTTTCCCGGTAATCCGTATTTGGC (site GGGCCGGCTGC)”, 0.
In the case of “GGGCCGGCATGGACCGGTTTTCCCGGTAATCCGTATTTGGC (site TGGCCGGCTGC)” it was 0; in that of “GGGCCTACATGGACCGGTTTTCCCGGTAATCCGTATTTGGG (site GGGCCTACTCC)”, 0; in that of “GGGCTCACATGGACCGGTTTTCCCGGTAATCCGTATTTGAT (site GAGCTCACTAT)”, 0.00773.
In the case of “GGGCTCACATGGACCGGTTTTCCCGGTAATCCGTATTTGAT (site GCGCTCACTAT)”, the “recombinant UMI read abundance (log10)” value amounted to 0.802.
Consider “GGGCTCACATGGACCGGTTTTCCCGGTAATCCGTATTTGAT (site GGGCTCACTAT)”, for which the “recombinant UMI read abundance (log10)” value was determined as 1.73.
In the case of “GGGCTCACATGGACCGGTTTTCCCGGTAATCCGTATTTGAT (site GTGCTCACTAT)” it was 1.11; in that of “GGGGAACCATGGACCGGTTTTCCCGGTAATCCGTATTTGAT (site AGGGAACCTAT)”, 0; in that of “GGGGAACCATGGACCGGTTTTCCCGGTAATCCGTATTTGAT (site CGGGAACCTAT)”, 0.
In the case of “GGGGAACCATGGACCGGTTTTCCCGGTAATCCGTATTTGAT (site GGGGAACCTAT)” it was 0; in that of “GGGGAACCATGGACCGGTTTTCCCGGTAATCCGTATTTGAT (site TGGGAACCTAT)”, 0; in that of “GGGGACTCATGGACCGGTTTTCCCGGTAATCCGTATTTGCA (site GGGGACTCTTG)”, 1.89.
As to “GGGGAGACATGGACCGGTTTTCCCGGTAATCCGTATTTGCC (site GGGGAGACTGG)”, the “recombinant UMI read abundance (log10)” value was 2.07.
In the case of “GGGGATGCATGGACCGGTTTTCCCGGTAATCCGTATTTGGC (site GGGGATGCTGC)” it was 0.
In the case of “GGGGCACCATGGACCGGTTTTCCCGGTAATCCGTATTTGTA (site GGGGCACCTTA)” it was 0; in that of “GGGGCACCATGGACCGGTTTTCCCGGTAATCCGTATTTGTA (site GGGGCACCTTC)”, 0.0203; in that of “GGGGCACCATGGACCGGTTTTCCCGGTAATCCGTATTTGTA (site GGGGCACCTTG)”, 0.00274.
In the case of “GGGGCACCATGGACCGGTTTTCCCGGTAATCCGTATTTGTA (site GGGGCACCTTT)” it was 0.0754; in that of “GGGGCAGCATGGACCGGTTTTCCCGGTAATCCGTATTTGCA (site GGGGCAACTTG)”, 1.47.
Take “GGGGCAGCATGGACCGGTTTTCCCGGTAATCCGTATTTGCA (site GGGGCACCTTG)”: the “recombinant UMI read abundance (log10)” value is 0.
In the case of “GGGGCAGCATGGACCGGTTTTCCCGGTAATCCGTATTTGCA (site GGGGCAGCTTG)” it was 2.13; in that of “GGGGCAGCATGGACCGGTTTTCCCGGTAATCCGTATTTGCA (site GGGGCATCTTG)”, 0.336; in that of “GGGGCCCCATGGACCGGTTTTCCCGGTAATCCGTATTTGGC (site GGGGCCCCTGC)”, 0.
In the case of “GGGGCGCCATGGACCGGTTTTCCCGGTAATCCGTATTTGCA (site GGGGCACCTTG)” it was 0.0167.
